Assay results published in article PMC6591251, “Discovery of potent necroptosis inhibitors targeting RIPK1 kinase activity for the treatment of inflammatory disorder and cancer metastasis” (Cell Death & Disease, 2019).

How the values were obtained:
Assay in all cases: RBC kinase panel
Type in all cases: biochemical
Details in all cases: ATP 10 μM, Data1, Data2
[1] = molecular target: T1, MLK3/MAP3K11 (Homo sapiens, UniProt Q16584)
T1 construct: purchased Reaction Biology Corporation
Outline: (§1)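 Single-point screen: 1 μM compound, duplicate wells, 369-kinase human panel, ATP fixed at 10 μM.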

[2] = molecular target: T2, RIPK5 (Homo sapiens, UniProt Q6XUX3)
T2 construct: purchased Reaction Biology Corporation
Outline: as §1

[3] = molecular target: T3, DAPK1 (Homo sapiens, UniProt P53355)
T3 construct: purchased Reaction Biology Corporation
Outline: as §1

[4] = molecular target: T4, CLK1 (Homo sapiens, UniProt P49759)
T4 construct: purchased Reaction Biology Corporation
Outline: as §1

[5] = molecular target: T5, CLK3 (Homo sapiens, UniProt P49761)
T5 construct: purchased Reaction Biology Corporation
Outline: as §1

[6] = molecular target: T6, PKCb2 (Homo sapiens, UniProt P05771)
T6 construct: purchased Reaction Biology Corporation
Outline: as §1

[7] = molecular target: T7, PEAK1 (Homo sapiens, UniProt Q9H792)
T7 construct: purchased Reaction Biology Corporation
Outline: as §1

[8] = molecular target: T8, TLK2 (Homo sapiens, UniProt Q86UE8)
T8 construct: purchased Reaction Biology Corporation
Outline: as §1

[9] = molecular target: T9, TYK1/LTK (Homo sapiens, UniProt P29376)
T9 construct: purchased Reaction Biology Corporation
Outline: as §1

[10] = molecular target: T10, RIPK2 (Homo sapiens, UniProt O43353)
T10 construct: purchased Reaction Biology Corporation
Outline: as §1

[11] = molecular target: T11, MLCK2/MYLK2 (Homo sapiens, UniProt Q9H1R3)
T11 construct: purchased Reaction Biology Corporation
Outline: as §1

[12] = molecular target: T12, ABL2/ARG (Homo sapiens, UniProt P42684)
T12 construct: purchased Reaction Biology Corporation
Outline: as §1

[13] = molecular target: T13, PLK4/SAK (Homo sapiens, UniProt O00444)
T13 construct: purchased Reaction Biology Corporation
Outline: as §1

[14] = molecular target: T14, MUSK (Homo sapiens, UniProt O15146)
T14 construct: purchased Reaction Biology Corporation
Outline: as §1

[15] = molecular target: T15, SGK3/SGKL (Homo sapiens, UniProt Q96BR1)
T15 construct: purchased Reaction Biology Corporation
Outline: as §1

[16] = molecular target: T16, JNK3 (Homo sapiens, UniProt P53779)
T16 construct: purchased Reaction Biology Corporation
Outline: as §1

[17] = molecular target: T17, ALK4/ACVR1B (Homo sapiens, UniProt P36896)
T17 construct: purchased Reaction Biology Corporation
Outline: as §1

[18] = molecular target: T18, PIM1 (Homo sapiens, UniProt P11309)
T18 construct: purchased Reaction Biology Corporation
Outline: as §1

[19] = molecular target: T19, TNK1 (Homo sapiens, UniProt Q13470)
T19 construct: purchased Reaction Biology Corporation
Outline: as §1

[20] = molecular target: T20, KDR/VEGFR2 (Homo sapiens, UniProt P35968)
T20 construct: purchased Reaction Biology Corporation
Outline: as §1

[21] = molecular target: T21, EGFR (Homo sapiens, UniProt P00533)
T21 construct: purchased Reaction Biology Corporation
Outline: as §1

[22] = molecular target: T22, LIMK1 (Homo sapiens, UniProt P53667)
T22 construct: purchased Reaction Biology Corporation
Outline: as §1

[23] = molecular target: T23, IR (Homo sapiens, UniProt P06213)
T23 construct: purchased Reaction Biology Corporation
Outline: as §1

[24] = molecular target: T24, EPHA8 (Homo sapiens, UniProt P29322)
T24 construct: purchased Reaction Biology Corporation
Outline: as §1

[25] = molecular target: T25, LKB1 (Homo sapiens, UniProt Q15831)
T25 construct: purchased Reaction Biology Corporation
Outline: as §1

[26] = molecular target: T26, MINK/MINK1 (Homo sapiens, UniProt Q8N4C8)
T26 construct: purchased Reaction Biology Corporation
Outline: as §1

[27] = molecular target: T27, TGFBR2 (Homo sapiens, UniProt P37173)
T27 construct: purchased Reaction Biology Corporation
Outline: as §1

[28] = molecular target: T28, MKK6 (Homo sapiens, UniProt P52564)
T28 construct: purchased Reaction Biology Corporation
Outline: as §1

[29] = molecular target: T29, ZIPK/DAPK3 (Homo sapiens, UniProt O43293)
T29 construct: purchased Reaction Biology Corporation
Outline: as §1

[30] = molecular target: T30, RIPK4 (Homo sapiens, UniProt P57078)
T30 construct: purchased Reaction Biology Corporation
Outline: as §1

[31] = molecular target: T31, SSTK/TSSK6 (Homo sapiens, UniProt Q9BXA6)
T31 construct: purchased Reaction Biology Corporation
Outline: as §1

[32] = molecular target: T32, ALK1/ACVRL1 (Homo sapiens, UniProt P37023)
T32 construct: purchased Reaction Biology Corporation
Outline: as §1

[33] = molecular target: T33, ULK1 (Homo sapiens, UniProt O75385)
T33 construct: purchased Reaction Biology Corporation
Outline: as §1

T17 sequence (P36896 24-505): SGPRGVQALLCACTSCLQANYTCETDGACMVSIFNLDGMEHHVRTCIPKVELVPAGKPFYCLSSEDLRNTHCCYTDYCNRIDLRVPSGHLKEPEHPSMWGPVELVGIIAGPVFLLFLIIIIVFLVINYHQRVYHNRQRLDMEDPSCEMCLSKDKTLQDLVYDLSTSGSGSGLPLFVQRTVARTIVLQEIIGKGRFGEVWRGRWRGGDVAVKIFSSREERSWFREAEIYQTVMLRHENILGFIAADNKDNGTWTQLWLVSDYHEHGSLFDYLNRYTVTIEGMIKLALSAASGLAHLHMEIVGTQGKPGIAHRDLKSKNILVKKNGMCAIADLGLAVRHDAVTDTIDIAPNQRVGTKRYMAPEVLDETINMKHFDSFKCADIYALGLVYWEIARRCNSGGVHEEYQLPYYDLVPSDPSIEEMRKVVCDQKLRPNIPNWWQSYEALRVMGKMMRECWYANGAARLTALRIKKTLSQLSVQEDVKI
T24 sequence (P29322 28-1005): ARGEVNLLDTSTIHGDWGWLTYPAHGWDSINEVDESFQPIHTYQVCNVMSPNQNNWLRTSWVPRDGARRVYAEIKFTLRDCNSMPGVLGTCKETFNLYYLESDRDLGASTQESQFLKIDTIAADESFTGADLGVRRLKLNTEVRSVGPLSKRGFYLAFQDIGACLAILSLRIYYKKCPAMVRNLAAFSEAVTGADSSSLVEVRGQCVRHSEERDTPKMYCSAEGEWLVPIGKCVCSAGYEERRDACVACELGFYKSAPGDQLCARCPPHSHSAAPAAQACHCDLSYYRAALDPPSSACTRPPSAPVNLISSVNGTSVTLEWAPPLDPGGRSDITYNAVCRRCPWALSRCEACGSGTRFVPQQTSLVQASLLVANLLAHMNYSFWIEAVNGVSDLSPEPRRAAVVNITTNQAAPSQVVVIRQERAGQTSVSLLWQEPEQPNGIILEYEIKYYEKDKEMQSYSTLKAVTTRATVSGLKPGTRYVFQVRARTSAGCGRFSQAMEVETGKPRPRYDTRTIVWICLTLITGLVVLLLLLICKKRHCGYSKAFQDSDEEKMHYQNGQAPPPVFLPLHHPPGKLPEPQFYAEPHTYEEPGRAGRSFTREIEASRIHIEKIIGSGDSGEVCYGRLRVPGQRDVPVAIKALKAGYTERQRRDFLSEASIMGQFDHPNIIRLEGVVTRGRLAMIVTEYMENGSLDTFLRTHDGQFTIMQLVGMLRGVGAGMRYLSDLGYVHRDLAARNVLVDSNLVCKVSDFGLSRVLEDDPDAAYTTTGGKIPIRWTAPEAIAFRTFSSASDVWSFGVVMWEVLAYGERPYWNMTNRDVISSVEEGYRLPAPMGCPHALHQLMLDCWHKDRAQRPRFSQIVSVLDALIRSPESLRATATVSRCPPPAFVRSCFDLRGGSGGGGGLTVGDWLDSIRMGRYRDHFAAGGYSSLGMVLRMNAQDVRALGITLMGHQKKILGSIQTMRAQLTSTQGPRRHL
T20 sequence (P35968 20-1356): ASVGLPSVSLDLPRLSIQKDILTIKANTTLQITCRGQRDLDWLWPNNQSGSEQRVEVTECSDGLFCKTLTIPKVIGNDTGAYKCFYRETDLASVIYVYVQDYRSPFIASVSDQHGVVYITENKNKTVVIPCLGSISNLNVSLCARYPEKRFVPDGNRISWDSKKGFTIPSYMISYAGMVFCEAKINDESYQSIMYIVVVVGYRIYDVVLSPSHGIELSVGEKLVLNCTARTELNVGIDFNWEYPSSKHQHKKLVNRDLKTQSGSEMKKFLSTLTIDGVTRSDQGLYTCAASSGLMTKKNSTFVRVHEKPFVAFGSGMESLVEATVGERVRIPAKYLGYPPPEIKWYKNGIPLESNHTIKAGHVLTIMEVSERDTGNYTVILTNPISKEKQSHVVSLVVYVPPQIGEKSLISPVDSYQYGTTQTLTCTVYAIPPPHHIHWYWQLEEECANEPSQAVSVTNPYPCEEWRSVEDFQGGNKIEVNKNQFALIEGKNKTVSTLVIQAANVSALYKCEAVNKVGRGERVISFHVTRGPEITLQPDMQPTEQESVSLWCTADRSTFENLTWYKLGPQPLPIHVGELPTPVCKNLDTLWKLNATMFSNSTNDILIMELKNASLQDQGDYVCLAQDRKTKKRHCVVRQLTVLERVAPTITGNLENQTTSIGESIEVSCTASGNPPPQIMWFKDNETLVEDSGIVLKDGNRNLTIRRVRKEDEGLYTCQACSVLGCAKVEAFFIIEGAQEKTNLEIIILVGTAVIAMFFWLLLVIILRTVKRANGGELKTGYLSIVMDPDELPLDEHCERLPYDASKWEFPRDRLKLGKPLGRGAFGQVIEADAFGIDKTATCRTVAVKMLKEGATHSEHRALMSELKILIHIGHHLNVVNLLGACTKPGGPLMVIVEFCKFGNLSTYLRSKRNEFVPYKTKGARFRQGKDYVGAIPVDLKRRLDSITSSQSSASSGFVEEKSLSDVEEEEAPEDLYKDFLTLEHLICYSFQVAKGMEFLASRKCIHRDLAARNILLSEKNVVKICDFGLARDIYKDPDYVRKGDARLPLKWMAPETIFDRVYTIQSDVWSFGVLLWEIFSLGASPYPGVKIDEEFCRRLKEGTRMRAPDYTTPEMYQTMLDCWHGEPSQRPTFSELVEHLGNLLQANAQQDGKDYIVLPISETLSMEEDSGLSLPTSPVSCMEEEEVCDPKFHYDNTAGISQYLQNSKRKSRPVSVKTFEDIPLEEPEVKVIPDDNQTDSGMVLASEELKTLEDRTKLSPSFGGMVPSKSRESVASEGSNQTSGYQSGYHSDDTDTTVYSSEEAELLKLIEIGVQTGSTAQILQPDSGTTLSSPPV
T30 sequence (P57078 whole entry): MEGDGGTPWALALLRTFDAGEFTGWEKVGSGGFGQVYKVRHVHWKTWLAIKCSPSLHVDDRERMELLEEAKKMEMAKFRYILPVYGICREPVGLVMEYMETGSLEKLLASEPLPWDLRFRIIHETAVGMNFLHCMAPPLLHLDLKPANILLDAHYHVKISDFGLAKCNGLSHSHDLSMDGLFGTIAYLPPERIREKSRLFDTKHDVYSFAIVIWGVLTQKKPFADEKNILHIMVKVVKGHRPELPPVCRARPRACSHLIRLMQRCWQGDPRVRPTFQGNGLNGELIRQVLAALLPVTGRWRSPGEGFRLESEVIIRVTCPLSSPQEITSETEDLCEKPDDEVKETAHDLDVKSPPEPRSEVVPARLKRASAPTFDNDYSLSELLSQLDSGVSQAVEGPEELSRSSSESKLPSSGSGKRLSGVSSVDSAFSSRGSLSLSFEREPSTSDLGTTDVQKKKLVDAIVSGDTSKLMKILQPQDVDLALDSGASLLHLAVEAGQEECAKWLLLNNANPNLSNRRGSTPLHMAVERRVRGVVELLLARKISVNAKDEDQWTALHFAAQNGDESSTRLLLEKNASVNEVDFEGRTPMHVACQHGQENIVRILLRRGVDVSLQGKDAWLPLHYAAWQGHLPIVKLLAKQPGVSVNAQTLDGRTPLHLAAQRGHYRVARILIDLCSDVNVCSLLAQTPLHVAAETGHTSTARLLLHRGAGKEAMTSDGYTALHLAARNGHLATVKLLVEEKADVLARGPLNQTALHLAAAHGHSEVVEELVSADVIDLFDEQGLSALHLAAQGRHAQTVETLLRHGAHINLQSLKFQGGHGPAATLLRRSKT
T16 sequence (P53779 whole entry): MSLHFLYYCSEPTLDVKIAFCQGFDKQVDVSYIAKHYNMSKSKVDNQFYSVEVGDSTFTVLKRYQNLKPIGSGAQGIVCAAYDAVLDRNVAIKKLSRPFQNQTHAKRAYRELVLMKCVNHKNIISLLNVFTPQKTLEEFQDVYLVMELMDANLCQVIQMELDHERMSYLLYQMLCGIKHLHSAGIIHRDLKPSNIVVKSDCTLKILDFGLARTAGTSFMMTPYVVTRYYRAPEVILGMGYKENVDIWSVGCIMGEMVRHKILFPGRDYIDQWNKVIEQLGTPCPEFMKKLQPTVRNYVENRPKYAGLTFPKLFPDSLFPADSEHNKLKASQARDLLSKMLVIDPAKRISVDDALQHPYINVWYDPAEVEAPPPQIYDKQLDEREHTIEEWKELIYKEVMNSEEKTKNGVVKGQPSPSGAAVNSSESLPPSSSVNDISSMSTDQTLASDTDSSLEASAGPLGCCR
T31 sequence (Q9BXA6 whole entry): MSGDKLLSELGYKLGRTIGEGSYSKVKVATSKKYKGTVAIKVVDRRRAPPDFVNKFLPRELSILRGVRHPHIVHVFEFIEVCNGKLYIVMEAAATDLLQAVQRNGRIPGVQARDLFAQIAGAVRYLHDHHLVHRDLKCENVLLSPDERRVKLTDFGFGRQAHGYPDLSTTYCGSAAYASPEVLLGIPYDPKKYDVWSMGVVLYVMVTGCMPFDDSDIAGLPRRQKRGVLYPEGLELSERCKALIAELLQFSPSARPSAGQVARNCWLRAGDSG
T15 sequence (Q96BR1 whole entry): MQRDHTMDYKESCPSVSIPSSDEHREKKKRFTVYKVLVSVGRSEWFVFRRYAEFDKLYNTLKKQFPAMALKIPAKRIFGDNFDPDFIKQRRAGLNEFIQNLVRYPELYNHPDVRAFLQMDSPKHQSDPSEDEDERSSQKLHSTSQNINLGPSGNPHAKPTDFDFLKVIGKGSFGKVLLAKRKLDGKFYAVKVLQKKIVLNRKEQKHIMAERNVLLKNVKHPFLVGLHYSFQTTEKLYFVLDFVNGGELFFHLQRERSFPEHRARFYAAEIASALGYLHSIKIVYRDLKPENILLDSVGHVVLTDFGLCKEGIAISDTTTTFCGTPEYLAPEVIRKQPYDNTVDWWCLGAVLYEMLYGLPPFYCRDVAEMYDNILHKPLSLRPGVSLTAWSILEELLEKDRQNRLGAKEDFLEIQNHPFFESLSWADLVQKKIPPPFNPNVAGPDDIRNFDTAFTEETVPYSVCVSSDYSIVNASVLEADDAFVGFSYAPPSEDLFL

CC(=O)Nc1nc2ccc(-c3cnc(C)c(NC(=O)OC4CCCCC4)c3)cc2s1 [PK68, cyclohexyl (5-(2-acetamidobenzo[d]thiazol-6-yl)-2-methylpyridin-3-yl)carbamate]
Activity% ([1]; 1 μM): 82.77% | activity at 1 µM [1]: 82.9% | Activity% ([2]; 1 μM): 102.45% | activity at 1 µM [2]: 103% | Activity% ([3]; 1 μM): 87.16% | activity at 1 µM [3]: 88.5% | Activity% ([4]; 1 μM): 80.72% | activity at 1 µM [4]: 81.9% | Activity% ([5]; 1 μM): 99.85% | activity at 1 µM [5]: 101% | Activity% ([6]; 1 μM): 98.56% | activity at 1 µM [6]: 100% | Activity% ([7]; 1 μM): 100.13% | activity at 1 µM [7]: 103% | Activity% ([8]; 1 μM): 96.86% | activity at 1 µM [8]: 98.1% | Activity% ([9]; 1 μM): 98.39% | activity at 1 µM [9]: 99.8% | Activity% ([10]; 1 μM): 85.19% | activity at 1 µM [10]: 91.2% | Activity% ([11]; 1 μM): 50.92% | activity at 1 µM [11]: 51.3% | Activity% ([12]; 1 μM): 91.15% | activity at 1 µM [12]: 91.9% | Activity% ([13]; 1 μM): 89.27% | activity at 1 µM [13]: 91.8% | Activity% ([14]; 1 μM): 70.88% | activity at 1 µM [14]: 75.9% | Activity% ([15]; 1 μM): 99.59% | activity at 1 µM [15]: 102% | Activity% ([16]; 1 μM): 99.15% | activity at 1 µM [16]: 101% | Activity% ([17]; 1 μM): 95.17% | activity at 1 µM [17]: 95.5% | Activity% ([18]; 1 μM): 100.16% | activity at 1 µM [18]: 102% | Activity% ([19]; 1 μM): 86.66% | activity at 1 µM [19]: 87.9% | Activity% ([20]; 1 μM): 88.68% | activity at 1 µM [20]: 90.3% | Activity% ([21]; 1 μM): 99.30% | activity at 1 µM [21]: 99.7% | Activity% ([22]; 1 μM): 63.37% | activity at 1 µM [22]: 63.4% | Activity% ([23]; 1 μM): 81.00% | activity at 1 µM [23]: 81.6% | Activity% ([24]; 1 μM): 99.05% | activity at 1 µM [24]: 100% | Activity% ([25]; 1 μM): 102.07% | activity at 1 µM [25]: 103% | Activity% ([26]; 1 μM): 88.92% | activity at 1 µM [26]: 90.2% | Activity% ([27]; 1 μM): 114.72% | activity at 1 µM [27]: 115% | Activity% ([28]; 1 μM): 107.08% | activity at 1 µM [28]: 109% | Activity% ([29]; 1 μM): 98.55% | activity at 1 µM [29]: 100% | Activity% ([30]; 1 μM): 92.60% | activity at 1 µM [30]: 94.5% | Activity% ([31]; 1 μM): 91.18% | activity at 1 µM [31]: 91.3% | Activity% ([32]; 1 μM): 91.76% | activity at 1 µM [32]: 95.2% | Activity% ([33]; 1 μM): 100.13% | activity at 1 µM [33]: 105%
